Patent US11612604B2, “Methods of treating cancer with PLK4 inhibitors” (LUDWIG INSTITUTE FOR CANCER RESEARCH LTD, priority 2017, dated 2023)

Target: T1, PLK4 (Homo sapiens, UniProt O00444)
T1 sequence (O00444 1-970): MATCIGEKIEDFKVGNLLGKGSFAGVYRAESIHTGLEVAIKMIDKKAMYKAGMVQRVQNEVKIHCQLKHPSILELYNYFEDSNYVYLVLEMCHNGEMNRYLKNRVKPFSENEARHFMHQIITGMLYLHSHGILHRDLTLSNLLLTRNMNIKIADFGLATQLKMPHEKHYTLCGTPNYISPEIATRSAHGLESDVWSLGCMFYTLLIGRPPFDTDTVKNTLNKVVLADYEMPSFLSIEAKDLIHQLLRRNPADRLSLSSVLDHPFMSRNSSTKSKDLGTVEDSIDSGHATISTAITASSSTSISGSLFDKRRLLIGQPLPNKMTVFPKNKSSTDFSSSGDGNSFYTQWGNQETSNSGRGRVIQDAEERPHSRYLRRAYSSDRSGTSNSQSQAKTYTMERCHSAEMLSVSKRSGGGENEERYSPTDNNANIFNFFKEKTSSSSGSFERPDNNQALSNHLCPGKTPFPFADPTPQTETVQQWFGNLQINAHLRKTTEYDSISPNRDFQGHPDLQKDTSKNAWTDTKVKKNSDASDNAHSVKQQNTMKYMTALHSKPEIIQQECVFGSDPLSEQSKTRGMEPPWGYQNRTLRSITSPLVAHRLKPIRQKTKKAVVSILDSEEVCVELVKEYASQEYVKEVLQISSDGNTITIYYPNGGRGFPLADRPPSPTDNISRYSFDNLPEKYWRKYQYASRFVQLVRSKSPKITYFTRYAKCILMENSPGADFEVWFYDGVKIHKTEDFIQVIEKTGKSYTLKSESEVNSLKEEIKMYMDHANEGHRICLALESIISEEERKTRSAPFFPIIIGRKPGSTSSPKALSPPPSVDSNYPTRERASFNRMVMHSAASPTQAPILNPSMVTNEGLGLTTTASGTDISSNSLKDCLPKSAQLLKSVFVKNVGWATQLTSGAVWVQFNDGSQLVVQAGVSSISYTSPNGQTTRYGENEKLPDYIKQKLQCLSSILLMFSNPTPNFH
Assay: Activity (IC50) of the Table 1 compounds as PLK4 inhibitors
Type: biochemical
Settings: Table 1, IC50 class

Row | SMILES | IC50
1 | CNc1nc(Sc2ccc(NC(=O)C3CC3)cc2)nc(Nc2cc(C)[nH]n2)c1C | < 0.1 µM
2 | CCCC(=O)Nc1ccc(Sc2nc(Nc3cc(C)[nH]n3)c(C)c(N3CCN(C)CC3)n2)cc1 | < 0.1 µM
3 | Cc1cc(Nc2nc(Sc3ccc(NC(=O)C4CC4)cc3)nc(NC(C)C)c2C)n[nH]1 | < 0.1 µM
4 | COc1c(Nc2cc(C)[nH]n2)nc(Sc2ccc(NC(C)=O)cc2)nc1NC1CCNCC1 | < 0.1 µM
5 | CCc1cc(Nc2nc(SC)nc(N3CCN(CCN(C)C)CC3)c2OC)n[nH]1 | < 0.1 µM
6 | CCc1cc(Nc2nc(SC)nc(N3CCN(CCN(C)C)CC3)c2C)n[nH]1 | < 0.1 µM
7 | COc1c(Nc2cc(C)[nH]n2)nc(Sc2ccc(NC(C)=O)nc2)nc1N1CCOCC1 | < 0.1 µM
8 | COc1c(Nc2cc(C)[nH]n2)nc(Sc2ccc(S(=O)(=O)C(C)(C)c3ncc[nH]3)cc2)nc1N1CCN(CCN(C)C)CC1 | < 0.1 µM
9 | COc1c(Nc2cc(C)[nH]n2)nc(Sc2ccc(S(=O)(=O)C(C)(C)c3cccc([N+](=O)[O-])c3F)cc2F)nc1N1CCC(C(N)=O)CC1 | < 0.1 µM
10 | COc1c(Nc2cc(C)[nH]n2)nc(Sc2ccc(S(=O)(=O)C(C)(C)c3cccc([N+](=O)[O-])c3F)cc2F)nc1N1CCN(C(C)=O)CC1 | < 0.1 µM
11 | COc1c(Nc2cc(C)[nH]n2)nc(Sc2ccc(S(=O)(=O)C(C)(C)c3cccc([N+](=O)[O-])c3F)cc2F)nc1N1CCC(C(=O)N(C)C)CC1 | < 0.1 µM
12 | COc1c(Nc2cc(C)[nH]n2)nc(Sc2ccc(S(=O)(=O)C(C)(C)c3c(F)c(F)cc(F)c3F)cc2F)nc1N1CCC(CCN)CC1 | < 0.1 µM
13 | COc1c(Nc2cc(C)[nH]n2)nc(Sc2ccc(S(=O)(=O)C3(c4cccc([N+](=O)[O-])c4F)CC3)cc2F)nc1N1CCN(CCNC(C)=O)CC1 | < 0.1 µM
14 | COc1c(Nc2cc(C)[nH]n2)nc(Sc2ccc(S(=O)(=O)C(C)(C)c3c(F)c(F)cc(F)c3F)cc2F)nc1N1CCN(C(C)=O)CC1 | < 0.1 µM
15 | COc1c(Nc2cc(C)[nH]n2)nc(Sc2ccc(S(=O)(=O)Cc3cccc([N+](=O)[O-])c3F)cc2F)nc1N1CCC(NC(C)=O)CC1 | < 0.1 µM
16 | COc1c(Nc2cc(C)[nH]n2)nc(Sc2ccc(S(=O)(=O)C(C)(C)c3c(F)c(F)cc(F)c3F)cc2F)nc1N1CCC(N)CC1 | < 0.1 µM
17 | COc1c(Nc2cc(C)[nH]n2)nc(Sc2ccc(S(=O)(=O)Cc3cccc([N+](=O)[O-])c3F)cc2F)nc1N1CCC(CC(N)=O)CC1 | < 0.1 µM
18 | COc1c(Nc2cc(C)[nH]n2)nc(Sc2ccc(S(=O)(=O)Cc3cccc([N+](=O)[O-])c3F)cc2F)nc1N1CCC(CCNC(C)=O)CC1 | < 0.1 µM

Row | SMILES | IC50
19 | COc1c(Nc2cc(C)[nH]n2)nc(Sc2ccc(S(=O)(=O)C(C)(C)c3cccc([N+](=O)[O-])c3F)cc2F)nc1N1CCC(NC(=O)C(F)(F)F)CC1 | < 0.1 µM
20 | COc1c(Nc2cc(C)[nH]n2)nc(Sc2ccc(S(=O)(=O)C(C)(C)c3c(F)c(F)cc(F)c3F)cc2F)nc1N1CCC(CC(N)=O)CC1 | < 0.1 µM
21 | COc1c(Nc2cc(C)[nH]n2)nc(Sc2ccc(S(=O)(=O)C3(c4cccc([N+](=O)[O-])c4F)CC3)cc2F)nc1N1CCOCC1 | < 0.1 µM
22 | COc1c(Nc2cc(C)[nH]n2)nc(Sc2ccc(S(=O)(=O)C3(c4cccc([N+](=O)[O-])c4F)CC3)cc2F)nc1N1CCC(CC(N)=O)CC1 | < 0.1 µM
23 | COc1c(Nc2cc(C)[nH]n2)nc(Sc2ccc(S(=O)(=O)C(C)(C)c3c(F)c(F)cc(F)c3F)cc2F)nc1N1CCNCC1 | < 0.1 µM
24 | COc1c(Nc2cc(C)[nH]n2)nc(Sc2ccc(S(=O)(=O)C3(c4cccc([N+](=O)[O-])c4F)CC3)cc2F)nc1N1CCC(NC(=O)C(F)(F)F)CC1 | < 0.1 µM
25 | COc1c(Nc2cc(C)[nH]n2)nc(Sc2ccc(S(=O)(=O)C3(c4cccc([N+](=O)[O-])c4F)CC3)cc2F)nc1N1CCC(C(=O)N(C)C)CC1 | < 0.1 µM
26 | COc1c(Nc2cc(C)[nH]n2)nc(Sc2ccc(S(=O)(=O)C3(c4cccc([N+](=O)[O-])c4F)CC3)cc2F)nc1N1CCNCC1 | < 0.1 µM
27 | COc1c(Nc2cc(C)[nH]n2)nc(Sc2ccc(S(=O)(=O)C3(c4cccc([N+](=O)[O-])c4F)CC3)cc2F)nc1N1CCC(N)CC1 | < 0.1 µM
28 | COc1c(Nc2cc(C)[nH]n2)nc(Sc2ccc(S(=O)(=O)C(C)(C)c3cccc([N+](=O)[O-])c3F)cc2F)nc1N1CCC(CCNC(=O)C(F)(F)F)CC1 | < 0.1 µM
29 | COc1c(Nc2cc(C)[nH]n2)nc(Sc2ccc(NC(C)=O)cc2)nc1N1CCN(CC(=O)C2CCCCC2)CC1 | < 0.1 µM
30 | Cc1cc(Nc2nc(Sc3ccc([N+](=O)[O-])cc3)nc3c2CCC32CCN(C(=O)C(C)(C)C)CC2)n[nH]1 | < 0.1 µM
31 | CC(=O)Nc1ccc(Sc2nc(Nc3cc(C)[nH]n3)c3c(n2)C2(CC3)CCN(C(=O)C(C)(C)C)CC2)cc1 | < 0.1 µM
32 | COc1c(Nc2cc(C)[nH]n2)nc(Sc2ccc(NC(C)=O)cc2)nc1C1=CCNCC1 | < 0.1 µM
33 | COc1c(Nc2cc(C)[nH]n2)nc(Sc2ccc(NC(C)=O)cc2)nc1N1CCN(CCN(C)C)CC1C (stereo not drawn) | < 0.1 µM
34 | CC(=O)Nc1ccc(Sc2nc(Nc3cc(C)[nH]n3)c3c(n2)C2(CC3)CCN(CCN(C)C)CC2)cc1 | < 0.1 µM
35 | Cc1cc(Nc2nc(Sc3ccc([N+](=O)[O-])cc3)nc3c2CCC32CCN(CCN(C)C)CC2)n[nH]1 | < 0.1 µM

Results, then the compound that gave them:

Row | IC50 | SMILES
36 | < 0.1 µM | Cc1cc(Nc2nc(Sc3ccc(NC(=O)C4CC4)cc3)nc(N3CCN(C)CC3)c2C)n[nH]1
37 | < 0.1 µM | CCNc1nc(Sc2ccc(NC(=O)C3CC3)cc2)nc(Nc2cc(C)[nH]n2)c1C
38 | < 0.1 µM | CCN(C)c1nc(Sc2ccc(NC(C)=O)cc2)nc(Nc2cc(C)[nH]n2)c1C
39 | < 0.1 µM | CC(=O)Nc1ccc(Sc2nc(Nc3cc(C)[nH]n3)c(C)c(N(C)C)n2)cc1
40 | < 0.1 µM | COc1c(Nc2cc(C)[nH]n2)nc(Sc2ccc(NC(C)=O)cc2)nc1N1CCC(CCN2CCOCC2)CC1
41 | < 0.1 µM | COc1c(Nc2cc(C)[nH]n2)nc(Sc2ccc(S(=O)(=O)C(C)(C)c3c(F)c(F)cc(F)c3F)cc2F)nc1N1CCC(CCNC(C)=O)CC1
42 | < 0.1 µM | COc1c(Nc2cc(C)[nH]n2)nc(Sc2ccc(S(=O)(=O)C3(c4cccc([N+](=O)[O-])c4F)CC3)cc2F)nc1N1CCC(CN(C)C)CC1
43 | < 0.1 µM | COc1c(Nc2cc(C)[nH]n2)nc(Sc2ccc(S(=O)(=O)C3(c4cccc([N+](=O)[O-])c4F)CC3)cc2F)nc1N1CCC(C(N)=O)CC1
44 | < 0.1 µM | COc1c(Nc2cc(C)[nH]n2)nc(Sc2ccc(S(=O)(=O)C(C)(C)c3c(F)c(F)cc(F)c3F)cc2F)nc1N1CCC(N)C1 (stereo not drawn)
45 | < 0.1 µM | COc1c(Nc2cc(C)[nH]n2)nc(Sc2ccc(S(=O)(=O)C(C)(C)c3cccc([N+](=O)[O-])c3F)cc2F)nc1N1CCC(N)C1 (stereo not drawn)
46 | < 0.1 µM | COc1c(Nc2cc(C)[nH]n2)nc(Sc2ccc(S(=O)(=O)C3(c4c(F)c(F)cc(F)c4F)CC3)cc2F)nc1N1CCOCC1
47 | < 0.1 µM | COc1c(Nc2cc(C)[nH]n2)nc(Sc2ccc(S(=O)(=O)C(C)(C)c3c(F)c(F)cc(F)c3F)cc2F)nc1N1CCC(CN)CC1
48 | < 0.1 µM | COc1c(Nc2cc(C)[nH]n2)nc(Sc2ccc(S(=O)(=O)C3(c4cccc([N+](=O)[O-])c4F)CC3)cc2F)nc1N1CCC(CCN(C)C)CC1
49 | < 0.1 µM | COc1c(Nc2cc(C)[nH]n2)nc(Sc2ccc(S(=O)(=O)C3(c4cccc([N+](=O)[O-])c4F)CC3)cc2F)nc1N1CCN(CCN(C)C)CC1
50 | < 0.1 µM | COc1c(Nc2cc(C)[nH]n2)nc(Sc2ccc(S(=O)(=O)C3(c4cccc([N+](=O)[O-])c4F)CC3)cc2F)nc1N1CCC(NC(C)=O)CC1
51 | < 0.1 µM | COc1c(Nc2cc(C)[nH]n2)nc(Sc2ccc(S(=O)(=O)C3(c4cccc([N+](=O)[O-])c4F)CC3)cc2F)nc1N1CCC(CN)CC1
52 | < 0.1 µM | COc1c(Nc2cc(C)[nH]n2)nc(Sc2cccc(NC(C)=O)c2)nc1N1CCN(CCN(C)C)CC1
53 | < 0.1 µM | COc1c(Nc2cc(C)[nH]n2)nc(Sc2cccc(NC(C)=O)c2)nc1N1CCOCC1
54 | < 0.1 µM | COc1c(Nc2cc(C)[nH]n2)nc(Sc2ccc(NC(C)=O)cc2)nc1N1CCN(CC(=O)N2CCOCC2)CC1
55 | 0.1 to 1 µM | Cc1cc(Nc2nc(Sc3ccc([N+](=O)[O-])cc3)nc3c2CCC32CCNCC2)n[nH]1
56 | < 0.1 µM | COc1c(Nc2cc(C)[nH]n2)nc(Sc2ccc([N+](=O)[O-])cc2)nc1N1CCN(CCN(C)C)CC1
57 | < 0.1 µM | COc1c(Nc2cc(C)[nH]n2)nc(Sc2ccc(NC(C)=O)cc2)nc1N1CCN(CCN(C)C)C(C)C1 (stereo not drawn)
58 | < 0.1 µM | COc1c(Nc2cc(C)[nH]n2)nc(Sc2ccc(NC(C)=O)cc2)nc1C1=CCN(CC(=O)N(C)C)CC1
59 | < 0.1 µM | COc1c(Nc2cc(C)[nH]n2)nc(Sc2ccc(NC(C)=O)cc2)nc1C1=CCN(CCN(C)C)CC1
60 | < 0.1 µM | COc1c(Nc2cc(C)[nH]n2)nc(Sc2ccc(NC(C)=O)cc2)nc1C1=CCN(C)CC1
61 | < 0.1 µM | Cc1cc(Nc2nc(Sc3ccc(N)cc3)nc3c2CCC32CCN(CCN(C)C)CC2)n[nH]1
62 | < 0.1 µM | COc1c(Nc2cc(C)[nH]n2)nc(Sc2ccc(NC(C)=O)cc2)nc1N1CCN(CCN2CCCC2)CC1
63 | < 0.1 µM | CCN(C)CCN1CCN(c2nc(Sc3ccc(NC(C)=O)cc3)nc(Nc3cc(C)[nH]n3)c2OC)CC1
